Results taken from patent US20250312462A1, “PAK1 DEGRADERS AND METHODS OF USE THEREOF” (INSTITUTE FOR CANCER RESEARCH D/B/A THE RESEARCH INSTITUTE …, priority 2022, published 2025).
Read-outs that look alike come from different tables or passages of the source.

Columns and labels:
SGK3 = SGK3 (Homo sapiens, UniProt Q96BR1); experiment: KINOMEscan; details: read-out: Percent Control
Description: (§1) The kinase engagement assay (KINOMEscan®) was performed by DiscoverX assessing binding abilities toward a set of kinases.

MYLK4 = MYLK4 (Homo sapiens, UniProt Q86YV6); experiment: KINOMEscan; details: read-out: Percent Control
Description: as §1

SRMS = SRMS (Homo sapiens, UniProt Q9H3Y6); experiment: KINOMEscan; details: read-out: Percent Control
Description: as §1

FGFR3(G697C) = FGFR3(G697C) (Homo sapiens, UniProt P22607, G697C); experiment: KINOMEscan; details: read-out: Percent Control
Description: as §1

PRKCH = PRKCH (Homo sapiens, UniProt P24723); experiment: KINOMEscan; details: read-out: Percent Control
Description: as §1

PYK2 = PYK2 (Homo sapiens, UniProt Q14289); experiment: KINOMEscan; details: read-out: Percent Control
Description: as §1

RET(V804M) = RET(V804M) (Homo sapiens, UniProt P07949, V804M); experiment: KINOMEscan; details: read-out: Percent Control
Description: as §1

AURKB = AURKB (Homo sapiens, UniProt Q96GD4); experiment: KINOMEscan; details: read-out: Percent Control
Description: as §1

AKT3 = AKT3 (Homo sapiens, UniProt Q9Y243); experiment: KINOMEscan; details: read-out: Percent Control
Description: as §1

KIT = KIT (Homo sapiens, UniProt P10721); experiment: KINOMEscan; details: read-out: Percent Control
Description: as §1

HASPIN = HASPIN (Homo sapiens, UniProt Q8TF76); experiment: KINOMEscan; details: read-out: Percent Control
Description: as §1

[1] = molecular target: RPS6KA5(Kin.Dom.2-C-terminal) (Homo sapiens, UniProt O75582); experiment: KINOMEscan; details: read-out: Percent Control
Description: as §1

ERK4 = ERK4 (Homo sapiens, UniProt P31152); experiment: KINOMEscan; details: read-out: Percent Control
Description: as §1

OVCAR3 cells = experiment: Cell proliferation, MTT assay; assay type: cell-based; details: Homo sapiens, OVCAR-3, OVCAR3 cells, read-out: EC50, anti-proliferative
Description: […]. Cell proliferation was assessed by MTT assay. […].
Cells were plated at 2×10^3 cells per well in 96-well plates overnight and treated with various concentrations of Pak degraders for 72 hours. Cell viability was measured by MTT assay and the half maximal inhibitory concentration (IC50) was calculated using GraphPad Prism. Triplicates were performed for each sample and medium alone was used as a blank.
The anti-proliferative effects of PAK1 degradation and inhibition were evaluated. […]. […] […]. […] […].

CDKL5 = CDKL5 (Homo sapiens, UniProt O76039); experiment: KINOMEscan; details: read-out: Percent Control
Description: as §1

PCTK2 = PCTK2 (Homo sapiens, UniProt Q00537); experiment: KINOMEscan; details: read-out: Percent Control
Description: as §1

HIPK1 = HIPK1 (Homo sapiens, UniProt Q86Z02); experiment: KINOMEscan; details: read-out: Percent Control
Description: as §1

PIP5K1A = PIP5K1A (Homo sapiens, UniProt Q99755); experiment: KINOMEscan; details: read-out: Percent Control
Description: as §1

TGFBR2 = TGFBR2 (Homo sapiens, UniProt P37173); experiment: KINOMEscan; details: read-out: Percent Control
Description: as §1

VPS34 = VPS34 (Homo sapiens, UniProt Q8NEB9); experiment: KINOMEscan; details: read-out: Percent Control
Description: as §1

EGFR(G719C) = EGFR(G719C) (Homo sapiens, UniProt P00533, G719C); experiment: KINOMEscan; details: read-out: Percent Control
Description: as §1

ALK = ALK (Homo sapiens, UniProt Q9UM73); experiment: KINOMEscan; details: read-out: Percent Control
Description: as §1

MAP3K3 = MAP3K3 (Homo sapiens, UniProt Q99759); experiment: KINOMEscan; details: read-out: Percent Control
Description: as §1

LOK = LOK (Homo sapiens, UniProt O94804); experiment: KINOMEscan; details: read-out: Percent Control
Description: as §1

CDC2L5 = molecular target: T1, CDC2L5 (Homo sapiens, UniProt Q14004); experiment: KINOMEscan; assay type: binding; details: read-out: Percent Control
T1 construct: purchased DiscoverX

DRAK2 = DRAK2 (Homo sapiens, UniProt O94768); experiment: KINOMEscan; details: read-out: Percent Control
Description: as §1

VRK2 = VRK2 (Homo sapiens, UniProt Q86Y07); experiment: KINOMEscan; details: read-out: Percent Control
Description: as §1

CAMK4 = CAMK4 (Homo sapiens, UniProt Q16566); experiment: KINOMEscan; details: read-out: Percent Control
Description: as §1

[2] = molecular target: ABL1(H396P)-nonphosphorylated (Homo sapiens, UniProt P00519, H396P); experiment: KINOMEscan; details: read-out: Percent Control
Description: as §1

OMM1 cells = experiment: Cell proliferation, MTT assay; assay type: cell-based; details: OMM1 cells (PAK2-dependent)
Description: Cell proliferation was assessed by MTT assay.
Cell viability was measured by MTT assay and the half maximal inhibitory concentration (IC50) was calculated using GraphPad Prism. Triplicates were performed for each sample and medium alone was used as a blank.
The anti-proliferative effects of PAK1 degradation and inhibition were evaluated.

PRKD2 = PRKD2 (Homo sapiens, UniProt Q9BZL6); experiment: KINOMEscan; details: read-out: Percent Control
Description: as §1

TNK2 = TNK2 (Homo sapiens, UniProt Q07912); experiment: KINOMEscan; details: read-out: Percent Control
Description: as §1

SNRK = SNRK (Homo sapiens, UniProt Q9NRH2); experiment: KINOMEscan; details: read-out: Percent Control
Description: as §1

SYK = SYK (Homo sapiens, UniProt P43405); experiment: KINOMEscan; details: read-out: Percent Control
Description: as §1

TNK2, sequence (Q07912 whole entry): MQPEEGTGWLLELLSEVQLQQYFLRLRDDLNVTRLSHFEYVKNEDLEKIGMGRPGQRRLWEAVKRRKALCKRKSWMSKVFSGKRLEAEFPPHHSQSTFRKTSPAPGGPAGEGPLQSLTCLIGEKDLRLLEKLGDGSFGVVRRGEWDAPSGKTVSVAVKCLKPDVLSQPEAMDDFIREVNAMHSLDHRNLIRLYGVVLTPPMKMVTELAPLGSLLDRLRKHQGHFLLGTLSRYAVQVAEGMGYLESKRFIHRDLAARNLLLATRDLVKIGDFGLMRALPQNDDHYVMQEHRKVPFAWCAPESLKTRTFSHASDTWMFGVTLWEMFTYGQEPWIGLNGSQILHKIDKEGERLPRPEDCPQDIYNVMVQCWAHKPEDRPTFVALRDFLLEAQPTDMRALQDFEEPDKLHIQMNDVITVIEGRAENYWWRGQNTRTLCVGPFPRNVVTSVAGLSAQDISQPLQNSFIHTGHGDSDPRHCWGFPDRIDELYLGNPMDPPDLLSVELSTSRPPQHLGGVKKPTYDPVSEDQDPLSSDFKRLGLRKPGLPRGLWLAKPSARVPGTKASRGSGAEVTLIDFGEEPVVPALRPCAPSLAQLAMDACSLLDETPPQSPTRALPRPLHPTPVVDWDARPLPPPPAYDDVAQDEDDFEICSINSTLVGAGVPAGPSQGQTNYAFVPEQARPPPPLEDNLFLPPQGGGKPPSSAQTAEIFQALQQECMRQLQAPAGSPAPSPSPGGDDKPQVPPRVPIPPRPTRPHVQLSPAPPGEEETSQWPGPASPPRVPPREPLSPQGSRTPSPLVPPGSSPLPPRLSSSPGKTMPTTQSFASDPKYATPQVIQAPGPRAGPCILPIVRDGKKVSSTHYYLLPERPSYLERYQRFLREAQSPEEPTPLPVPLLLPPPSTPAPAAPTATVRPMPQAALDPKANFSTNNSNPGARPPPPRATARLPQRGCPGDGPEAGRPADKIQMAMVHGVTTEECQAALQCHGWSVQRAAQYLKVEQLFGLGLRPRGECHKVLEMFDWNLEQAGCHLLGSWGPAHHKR
KIT, sequence (P10721 26-976): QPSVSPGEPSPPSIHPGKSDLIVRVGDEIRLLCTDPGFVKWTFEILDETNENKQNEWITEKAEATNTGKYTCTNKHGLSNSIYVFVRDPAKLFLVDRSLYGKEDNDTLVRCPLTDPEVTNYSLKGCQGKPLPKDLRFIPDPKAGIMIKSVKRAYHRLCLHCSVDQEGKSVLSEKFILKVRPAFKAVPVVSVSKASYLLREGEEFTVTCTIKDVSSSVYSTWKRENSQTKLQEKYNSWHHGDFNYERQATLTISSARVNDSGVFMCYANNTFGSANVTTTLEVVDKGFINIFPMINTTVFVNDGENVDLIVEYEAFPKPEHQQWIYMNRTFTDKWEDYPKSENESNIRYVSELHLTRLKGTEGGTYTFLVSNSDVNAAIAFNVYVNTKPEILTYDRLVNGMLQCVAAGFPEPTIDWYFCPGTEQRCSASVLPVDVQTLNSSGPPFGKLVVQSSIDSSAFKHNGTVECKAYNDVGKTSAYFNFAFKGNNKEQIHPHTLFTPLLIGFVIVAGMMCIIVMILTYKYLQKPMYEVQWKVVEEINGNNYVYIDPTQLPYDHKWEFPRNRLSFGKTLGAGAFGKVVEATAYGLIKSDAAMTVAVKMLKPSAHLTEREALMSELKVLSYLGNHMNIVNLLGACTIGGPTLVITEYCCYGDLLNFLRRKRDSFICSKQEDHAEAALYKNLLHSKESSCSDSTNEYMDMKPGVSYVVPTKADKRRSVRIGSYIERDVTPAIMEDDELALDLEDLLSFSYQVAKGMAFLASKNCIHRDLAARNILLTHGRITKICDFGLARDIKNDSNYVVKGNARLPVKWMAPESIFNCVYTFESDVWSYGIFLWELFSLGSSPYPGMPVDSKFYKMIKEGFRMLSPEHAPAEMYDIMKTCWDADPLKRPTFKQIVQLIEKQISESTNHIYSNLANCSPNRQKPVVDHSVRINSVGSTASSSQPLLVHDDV
ALK, sequence (Q9UM73 19-1620): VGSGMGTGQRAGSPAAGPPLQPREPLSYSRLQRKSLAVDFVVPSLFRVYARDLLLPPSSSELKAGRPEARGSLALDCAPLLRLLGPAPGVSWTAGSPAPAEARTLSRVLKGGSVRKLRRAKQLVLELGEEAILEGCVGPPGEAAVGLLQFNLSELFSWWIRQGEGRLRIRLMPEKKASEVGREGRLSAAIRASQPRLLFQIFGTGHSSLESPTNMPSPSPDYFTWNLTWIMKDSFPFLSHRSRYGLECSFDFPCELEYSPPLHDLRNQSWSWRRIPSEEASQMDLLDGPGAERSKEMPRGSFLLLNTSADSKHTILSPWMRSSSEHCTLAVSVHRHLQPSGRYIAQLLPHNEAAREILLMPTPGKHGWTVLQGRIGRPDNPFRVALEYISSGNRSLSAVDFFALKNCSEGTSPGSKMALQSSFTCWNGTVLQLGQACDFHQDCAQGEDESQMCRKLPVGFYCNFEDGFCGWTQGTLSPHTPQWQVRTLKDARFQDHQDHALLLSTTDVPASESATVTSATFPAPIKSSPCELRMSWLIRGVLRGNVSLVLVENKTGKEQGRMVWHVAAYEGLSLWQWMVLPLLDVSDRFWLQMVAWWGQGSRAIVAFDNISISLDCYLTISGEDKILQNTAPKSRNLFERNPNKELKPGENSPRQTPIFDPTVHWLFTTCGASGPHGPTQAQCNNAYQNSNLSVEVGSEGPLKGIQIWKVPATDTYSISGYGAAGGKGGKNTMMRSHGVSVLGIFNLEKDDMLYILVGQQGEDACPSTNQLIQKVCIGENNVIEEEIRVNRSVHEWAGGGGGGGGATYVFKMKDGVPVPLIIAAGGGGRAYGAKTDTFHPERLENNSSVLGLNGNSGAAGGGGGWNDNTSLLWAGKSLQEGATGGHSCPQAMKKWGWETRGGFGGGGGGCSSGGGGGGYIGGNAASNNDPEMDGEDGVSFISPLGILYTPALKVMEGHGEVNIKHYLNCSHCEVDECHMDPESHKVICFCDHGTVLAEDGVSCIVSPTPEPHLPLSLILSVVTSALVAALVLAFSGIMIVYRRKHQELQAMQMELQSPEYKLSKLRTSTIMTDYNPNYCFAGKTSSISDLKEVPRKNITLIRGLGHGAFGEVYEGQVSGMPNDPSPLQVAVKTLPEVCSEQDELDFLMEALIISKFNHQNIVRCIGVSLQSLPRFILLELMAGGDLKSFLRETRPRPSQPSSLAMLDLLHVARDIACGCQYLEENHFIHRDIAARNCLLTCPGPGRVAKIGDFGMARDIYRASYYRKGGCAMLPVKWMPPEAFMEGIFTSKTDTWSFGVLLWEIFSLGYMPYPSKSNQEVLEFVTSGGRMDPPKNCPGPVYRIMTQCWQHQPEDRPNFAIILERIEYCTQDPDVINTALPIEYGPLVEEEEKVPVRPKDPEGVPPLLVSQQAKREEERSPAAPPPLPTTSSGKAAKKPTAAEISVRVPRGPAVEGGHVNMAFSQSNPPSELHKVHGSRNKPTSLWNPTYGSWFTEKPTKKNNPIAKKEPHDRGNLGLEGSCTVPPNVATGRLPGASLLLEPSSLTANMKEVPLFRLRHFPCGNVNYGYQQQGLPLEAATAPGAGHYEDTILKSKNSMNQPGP
EGFR(G719C), sequence (P00533 25-1210 G719C): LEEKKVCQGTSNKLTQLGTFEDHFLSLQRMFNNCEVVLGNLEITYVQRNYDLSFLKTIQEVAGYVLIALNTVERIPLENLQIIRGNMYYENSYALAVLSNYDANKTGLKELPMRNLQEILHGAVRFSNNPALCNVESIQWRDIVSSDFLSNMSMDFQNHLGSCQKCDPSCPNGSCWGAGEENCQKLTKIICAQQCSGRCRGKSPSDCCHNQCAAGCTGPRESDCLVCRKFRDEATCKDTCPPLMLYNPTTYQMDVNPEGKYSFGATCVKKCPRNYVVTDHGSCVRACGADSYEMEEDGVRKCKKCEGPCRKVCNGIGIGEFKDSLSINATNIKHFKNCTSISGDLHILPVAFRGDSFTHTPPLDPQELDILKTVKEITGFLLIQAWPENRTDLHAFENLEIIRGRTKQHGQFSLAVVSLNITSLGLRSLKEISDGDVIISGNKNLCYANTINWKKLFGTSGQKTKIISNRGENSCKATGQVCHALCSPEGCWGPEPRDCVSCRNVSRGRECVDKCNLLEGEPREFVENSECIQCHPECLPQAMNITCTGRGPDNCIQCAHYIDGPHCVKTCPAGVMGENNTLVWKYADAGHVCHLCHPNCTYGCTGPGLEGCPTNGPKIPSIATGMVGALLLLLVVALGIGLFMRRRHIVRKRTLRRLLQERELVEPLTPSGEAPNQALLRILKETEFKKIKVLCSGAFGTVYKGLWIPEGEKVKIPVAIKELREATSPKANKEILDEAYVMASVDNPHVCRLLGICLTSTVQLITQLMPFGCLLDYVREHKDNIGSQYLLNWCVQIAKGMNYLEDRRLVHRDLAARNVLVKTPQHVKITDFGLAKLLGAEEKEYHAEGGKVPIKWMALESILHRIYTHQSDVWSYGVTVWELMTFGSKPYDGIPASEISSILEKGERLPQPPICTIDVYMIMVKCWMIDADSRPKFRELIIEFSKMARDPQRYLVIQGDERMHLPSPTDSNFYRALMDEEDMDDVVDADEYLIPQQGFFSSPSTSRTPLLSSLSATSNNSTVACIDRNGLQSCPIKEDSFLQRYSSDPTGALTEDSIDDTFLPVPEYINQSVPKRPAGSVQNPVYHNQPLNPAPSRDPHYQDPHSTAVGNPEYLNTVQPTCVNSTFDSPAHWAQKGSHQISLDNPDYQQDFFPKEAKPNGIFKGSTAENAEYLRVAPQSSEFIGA
RPS6KA5(Kin.Dom.2-C-terminal), sequence (O75582 426-687 limits assumed): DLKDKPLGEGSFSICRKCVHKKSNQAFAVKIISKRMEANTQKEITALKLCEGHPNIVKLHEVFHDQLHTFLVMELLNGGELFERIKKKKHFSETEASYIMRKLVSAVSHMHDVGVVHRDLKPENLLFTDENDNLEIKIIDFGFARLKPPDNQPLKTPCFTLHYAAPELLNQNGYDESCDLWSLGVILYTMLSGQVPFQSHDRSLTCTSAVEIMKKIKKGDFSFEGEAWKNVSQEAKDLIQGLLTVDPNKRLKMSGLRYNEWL

`O=C1CCC(N2C(=O)c3cccc(NCCCCCCCCNC(=O)N4CC[C@H](NC5=Nc6cc(F)ccc6N(CC(F)F)c6ccc(Cl)cc65)C4)c3C2=O)C(=O)N1` (stereo partly drawn) [BJG-05-039, (3S)-3-((2-Chloro-5-(2,2-difluoroethyl)-8-fluoro-5H-dibenzo[b,e][1,4]diazepin-11-yl)amino)-N-(8-((2-(2,6-dioxopiperidin-3-yl)-1,3-dioxoisoindolin-4-yl)amino)octyl)pyrrolidine-1-carboxamide] gave a remaining binding at 10 µM (SGK3) of 88%, a remaining binding at 10 µM (MYLK4) of 100% and a remaining binding at 10 µM (SRMS) of 97%. For the same molecule, the remaining binding at 10 µM (FGFR3(G697C)) was 95%, the remaining binding at 10 µM (PRKCH) was 94% and the remaining binding at 10 µM (PYK2) was 85%. The remaining binding at 10 µM (RET(V804M)) was 59%, the remaining binding at 10 µM (AURKB) was 93% and the remaining binding at 10 µM (AKT3) was 57%. The remaining binding at 10 µM (KIT) was 82%, the remaining binding at 10 µM (HASPIN) was 90% and the remaining binding at 10 µM [1] was 42%. The remaining binding at 10 µM (ERK4) was 52%, the EC50 (OVCAR3 cells; first statement of b311) was 8.4 nM and the EC50 (OVCAR3 cells; second listing of b311) was 102 nM. It also gave a remaining binding at 10 µM (CDKL5) of 100%, a remaining binding at 10 µM (PCTK2) of 58% and a remaining binding at 10 µM (HIPK1) of 100%. For the same molecule, the remaining binding at 10 µM (PIP5K1A) was 95%, the remaining binding at 10 µM (TGFBR2) was 75% and the remaining binding at 10 µM (VPS34) was 100%. It also gave a remaining binding at 10 µM (EGFR(G719C)) of 83%, a remaining binding at 10 µM (ALK) of 97% and a remaining binding at 10 µM (MAP3K3) of 100%. The remaining binding at 10 µM (LOK) was 98%, the remaining binding at 10 µM (CDC2L5) was 82% and the remaining binding at 10 µM (DRAK2) was 58%. For the same molecule, the remaining binding at 10 µM (VRK2) was 94%, the remaining binding at 10 µM (CAMK4) was 74% and the remaining binding at 10 µM [2] was 98%. For the same molecule, the “Effect on cell proliferation” value (OMM1 cells) was “Neither BJG-05-039 or NVS-PAK1-1 significantly affected cell proliferation”, the EC50 (OMM1 cells; OMM-1, read-out: EC50, anti-proliferative) was 20.8 µM and the remaining binding at 10 µM (PRKD2) was 53%. The remaining binding at 10 µM (TNK2) was 92%, the remaining binding at 10 µM (SNRK) was 89% and the remaining binding at 10 µM (SYK) was 92%.
